Measurements published in ChEMBL document CHEMBL1201862, “PubChem BioAssay data set” (2004).
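48-hour exposure; five concentrations; linearly interpolated endpoints. GI50 marks 50% less growth.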 Active and inactive are the calls of the source. No stated cut-off is given here; in the data, active = GI50 up to about 1.1 µM and inactive = higher.

Tests used:
Assay in all cases: inhibition of tumour cell growth, NCI panel, 48 h
HCC 2998 = system: HCC 2998
SR = system: SR
SK-MEL-5 = system: SK-MEL-5
OVCAR-5 = system: OVCAR-5
TK-10 = system: TK-10
HT-29 = system: HT-29
DU-145 = system: DU-145
OVCAR-8 = system: OVCAR-8
HCT-116 = system: HCT-116
SNB-19 = system: SNB-19
SK-OV-3 = system: SK-OV-3
OVCAR-3 = system: OVCAR-3
NCI-H460 = system: NCI-H460
M14 = system: M14
U-251 = system: U-251
RPMI-8226 = system: RPMI-8226
CCRF-CEM = system: CCRF-CEM
Malme-3M = system: Malme-3M
A549 = system: A549
SK-MEL-2 = system: SK-MEL-2

| SMILES | GI50 (HCC 2998) | GI50 (SR) | GI50 (SK-MEL-5) | GI50 (OVCAR-5) | GI50 (TK-10) | GI50 (HT-29) | GI50 (DU-145) | GI50 (OVCAR-8) | GI50 (HCT-116) | GI50 (SNB-19) | GI50 (SK-OV-3) | GI50 (OVCAR-3) | GI50 (NCI-H460) | GI50 (M14) | GI50 (U-251) | GI50 (RPMI-8226) | GI50 (CCRF-CEM) | GI50 (Malme-3M) | GI50 (A549) | GI50 (SK-MEL-2) |
| --- | --- | --- | --- | --- | --- | --- | --- | --- | --- | --- | --- | --- | --- | --- | --- | --- | --- | --- | --- | --- |
| COc1ccc(-c2coc3cc(OC)cc(O)c3c2=O)cc1 [4',7-DIMETHOXY-5-HYDROXYGENISTEIN] | > 100 µM (inactive) | > 100 µM (inactive) | > 100 µM (inactive) | > 100 µM (inactive) | 29.6 µM (inactive) | > 100 µM (inactive) | > 100 µM (inactive) | > 100 µM (inactive) | > 100 µM (inactive) | 31.4 µM (inactive) | > 100 µM (inactive) | > 100 µM (inactive) | > 100 µM (inactive) | 52.7 µM (inactive) | 43.3 µM (inactive) | > 100 µM (inactive) | > 100 µM (inactive) | > 100 µM (inactive) | > 100 µM (inactive) |  |
| COC1/C=C\C=C(/C)C(=O)Nc2cc3nc4ccc(Br)cc4oc-3c(c2=O)CC(C)CC(OC)C(O)C(C)/C=C(\C)C1OC(N)=O (configuration not stated) | 0.126 µM (active) | 0.0116 µM (active) | 0.178 µM (active) | 1.64 µM (inactive) | 0.0424 µM (active) | < 0.0396 µM (active) | 0.0458 µM (active) | 0.09 µM (active) | 0.0276 µM (active) | 13 µM (inactive) | 0.129 µM (active) | 0.082 µM (active) | 0.63 µM (active) | 0.0453 µM (active) | 4.46 µM (inactive) | 0.119 µM (active) |  | 0.0179 µM (active) | 3.61 µM (inactive) | 0.0741 µM (active) |
| COc1ccc(Cn2nc(OCc3ccccc3)c3cc([N+](=O)[O-])ccc32)cc1 | 99.3 µM (inactive) | > 100 µM (inactive) | > 100 µM (inactive) | > 100 µM (inactive) | > 100 µM (inactive) | > 100 µM (inactive) | > 100 µM (inactive) | > 100 µM (inactive) |  | > 100 µM (inactive) | > 100 µM (inactive) | > 100 µM (inactive) | > 100 µM (inactive) | > 100 µM (inactive) |  | > 100 µM (inactive) | > 100 µM (inactive) | > 100 µM (inactive) | > 100 µM (inactive) | > 100 µM (inactive) |
| CC(C)=CC[C@]12CCN[C@H]1N(S(=O)(=O)c1ccccc1)c1ccccc12 | 16.7 µM (inactive) | 18.3 µM (inactive) | 14.9 µM (inactive) | > 100 µM (inactive) | 34.9 µM (inactive) | 18.5 µM (inactive) | > 100 µM (inactive) | 16.8 µM (inactive) | 14.4 µM (inactive) | 21.5 µM (inactive) | 12.7 µM (inactive) | 16.9 µM (inactive) | 14.5 µM (inactive) |  | 16 µM (inactive) | 18.3 µM (inactive) | 23.6 µM (inactive) | 16.3 µM (inactive) | 19.9 µM (inactive) | 14.2 µM (inactive) |
| O=[N+]([O-])c1ccc(/C=C/c2cc(-c3ccccc3)nc3ccc4ccccc4c23)cc1 | > 100 µM (inactive) | > 100 µM (inactive) | > 100 µM (inactive) | > 100 µM (inactive) | > 100 µM (inactive) | > 100 µM (inactive) | > 100 µM (inactive) | > 100 µM (inactive) | > 100 µM (inactive) | > 100 µM (inactive) | > 100 µM (inactive) | > 100 µM (inactive) | > 100 µM (inactive) | > 100 µM (inactive) | > 100 µM (inactive) | > 100 µM (inactive) | > 100 µM (inactive) | > 100 µM (inactive) | > 100 µM (inactive) |  |
| Cc1sc2nc3n(sc4nc5sc(C)c(C)c5c(=O)n43)c(=O)c2c1C | > 100 µM (inactive) | 75.5 µM (inactive) | > 100 µM (inactive) | > 100 µM (inactive) | > 100 µM (inactive) | > 100 µM (inactive) | > 100 µM (inactive) | > 100 µM (inactive) | > 100 µM (inactive) | > 100 µM (inactive) | > 100 µM (inactive) | > 100 µM (inactive) | > 100 µM (inactive) | > 100 µM (inactive) | > 100 µM (inactive) | > 100 µM (inactive) | 16.4 µM (inactive) |  | > 100 µM (inactive) | > 100 µM (inactive) |
| Cc1ccc2c(c1)SSSSS2 | 17.7 µM (inactive) | 40.3 µM (inactive) | 19.1 µM (inactive) | 22.1 µM (inactive) | 20 µM (inactive) | 28.1 µM (inactive) | 16.6 µM (inactive) | 21.9 µM (inactive) | 14.3 µM (inactive) | 20.6 µM (inactive) | 21.9 µM (inactive) | 21.8 µM (inactive) | 18.4 µM (inactive) | 21.3 µM (inactive) | 34.3 µM (inactive) |  | 4.1 µM (inactive) | 17.7 µM (inactive) | 20.4 µM (inactive) |  |
| COC(=O)[C@@H]1C=C[C@@H](C#N)n2c(=O)n(-c3ccccc3)c(=O)n21 | 33.3 µM (inactive) | 20.6 µM (inactive) | 46.3 µM (inactive) | 29.4 µM (inactive) | 82.2 µM (inactive) | 31.1 µM (inactive) | 25.5 µM (inactive) | 23.3 µM (inactive) | 24.5 µM (inactive) | > 100 µM (inactive) | 47.5 µM (inactive) | 13.9 µM (inactive) |  | 25.9 µM (inactive) | 33.8 µM (inactive) | 31.8 µM (inactive) | 25.9 µM (inactive) |  |  |  |
